Experiment in all cases: kinome screen (33PanQinase)
Type in all cases: biochemical

One experiment deals with T1, PIM2 (Homo sapiens, UniProt Q9P1W9).
T1 construct: purchased Reaction Biology Europe GmbH (formerly ProQinase)
How it is done: (§1) The Kinome Screening was performed by Reaction Biology Europe GmbH (http://reactionbiology.com; Freiburg i. Br., Germany).

A further experiment deals with T2, LYN (Homo sapiens, UniProt P07948).
T2 construct: purchased Reaction Biology Europe GmbH (formerly ProQinase)
T2 sequence (P07948 whole entry): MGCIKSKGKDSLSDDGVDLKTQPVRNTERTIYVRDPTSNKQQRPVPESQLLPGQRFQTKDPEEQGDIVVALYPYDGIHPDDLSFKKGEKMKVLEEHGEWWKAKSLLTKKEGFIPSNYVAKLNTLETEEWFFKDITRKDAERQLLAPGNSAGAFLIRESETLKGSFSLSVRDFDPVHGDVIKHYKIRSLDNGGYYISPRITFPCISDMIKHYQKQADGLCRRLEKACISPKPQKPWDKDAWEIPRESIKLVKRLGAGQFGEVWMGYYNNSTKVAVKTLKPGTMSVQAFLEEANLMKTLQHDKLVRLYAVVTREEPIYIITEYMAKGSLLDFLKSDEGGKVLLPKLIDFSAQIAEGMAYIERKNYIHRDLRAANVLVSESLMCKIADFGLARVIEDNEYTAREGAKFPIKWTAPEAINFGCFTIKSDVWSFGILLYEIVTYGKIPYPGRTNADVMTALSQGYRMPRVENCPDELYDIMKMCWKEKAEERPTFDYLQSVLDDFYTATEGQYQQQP
Here is the method: as §1

In another experiment the target is T3, MLK4 (Homo sapiens, UniProt Q5TCX8).
T3 construct: purchased Reaction Biology Europe GmbH (formerly ProQinase)
T3 sequence (Q5TCX8 whole entry): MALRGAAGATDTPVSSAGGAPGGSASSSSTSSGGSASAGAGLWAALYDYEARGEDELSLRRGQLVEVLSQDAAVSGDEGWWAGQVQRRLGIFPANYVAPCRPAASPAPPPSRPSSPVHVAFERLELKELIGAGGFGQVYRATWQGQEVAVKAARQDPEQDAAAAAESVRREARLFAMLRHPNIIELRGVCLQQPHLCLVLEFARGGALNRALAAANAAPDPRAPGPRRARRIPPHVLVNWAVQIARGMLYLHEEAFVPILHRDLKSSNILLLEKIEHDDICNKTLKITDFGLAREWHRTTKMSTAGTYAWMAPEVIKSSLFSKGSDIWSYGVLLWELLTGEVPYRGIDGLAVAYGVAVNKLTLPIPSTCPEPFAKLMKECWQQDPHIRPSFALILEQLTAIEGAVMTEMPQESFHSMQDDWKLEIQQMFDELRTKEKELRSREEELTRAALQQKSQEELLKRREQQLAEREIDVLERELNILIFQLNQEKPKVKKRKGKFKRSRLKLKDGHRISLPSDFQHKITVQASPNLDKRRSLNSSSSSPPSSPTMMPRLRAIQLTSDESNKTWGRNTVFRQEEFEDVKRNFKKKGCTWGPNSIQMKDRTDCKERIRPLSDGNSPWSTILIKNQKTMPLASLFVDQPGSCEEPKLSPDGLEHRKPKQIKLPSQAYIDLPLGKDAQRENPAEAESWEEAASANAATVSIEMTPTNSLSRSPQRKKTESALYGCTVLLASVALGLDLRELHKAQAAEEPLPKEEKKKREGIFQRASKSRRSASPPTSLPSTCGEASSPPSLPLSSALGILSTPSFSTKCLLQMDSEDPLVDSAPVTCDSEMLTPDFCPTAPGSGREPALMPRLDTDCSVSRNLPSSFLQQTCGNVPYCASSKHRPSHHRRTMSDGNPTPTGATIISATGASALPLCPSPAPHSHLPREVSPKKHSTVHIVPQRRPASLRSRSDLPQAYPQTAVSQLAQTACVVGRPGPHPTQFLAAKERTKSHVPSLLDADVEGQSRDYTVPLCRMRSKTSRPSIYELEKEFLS
Here is the method:
as §1

In another experiment the target is T4, TAOK2 (Homo sapiens, UniProt Q9UL54).
T4 construct: purchased Reaction Biology Europe GmbH (formerly ProQinase)
T4 sequence (Q9UL54 1-1235): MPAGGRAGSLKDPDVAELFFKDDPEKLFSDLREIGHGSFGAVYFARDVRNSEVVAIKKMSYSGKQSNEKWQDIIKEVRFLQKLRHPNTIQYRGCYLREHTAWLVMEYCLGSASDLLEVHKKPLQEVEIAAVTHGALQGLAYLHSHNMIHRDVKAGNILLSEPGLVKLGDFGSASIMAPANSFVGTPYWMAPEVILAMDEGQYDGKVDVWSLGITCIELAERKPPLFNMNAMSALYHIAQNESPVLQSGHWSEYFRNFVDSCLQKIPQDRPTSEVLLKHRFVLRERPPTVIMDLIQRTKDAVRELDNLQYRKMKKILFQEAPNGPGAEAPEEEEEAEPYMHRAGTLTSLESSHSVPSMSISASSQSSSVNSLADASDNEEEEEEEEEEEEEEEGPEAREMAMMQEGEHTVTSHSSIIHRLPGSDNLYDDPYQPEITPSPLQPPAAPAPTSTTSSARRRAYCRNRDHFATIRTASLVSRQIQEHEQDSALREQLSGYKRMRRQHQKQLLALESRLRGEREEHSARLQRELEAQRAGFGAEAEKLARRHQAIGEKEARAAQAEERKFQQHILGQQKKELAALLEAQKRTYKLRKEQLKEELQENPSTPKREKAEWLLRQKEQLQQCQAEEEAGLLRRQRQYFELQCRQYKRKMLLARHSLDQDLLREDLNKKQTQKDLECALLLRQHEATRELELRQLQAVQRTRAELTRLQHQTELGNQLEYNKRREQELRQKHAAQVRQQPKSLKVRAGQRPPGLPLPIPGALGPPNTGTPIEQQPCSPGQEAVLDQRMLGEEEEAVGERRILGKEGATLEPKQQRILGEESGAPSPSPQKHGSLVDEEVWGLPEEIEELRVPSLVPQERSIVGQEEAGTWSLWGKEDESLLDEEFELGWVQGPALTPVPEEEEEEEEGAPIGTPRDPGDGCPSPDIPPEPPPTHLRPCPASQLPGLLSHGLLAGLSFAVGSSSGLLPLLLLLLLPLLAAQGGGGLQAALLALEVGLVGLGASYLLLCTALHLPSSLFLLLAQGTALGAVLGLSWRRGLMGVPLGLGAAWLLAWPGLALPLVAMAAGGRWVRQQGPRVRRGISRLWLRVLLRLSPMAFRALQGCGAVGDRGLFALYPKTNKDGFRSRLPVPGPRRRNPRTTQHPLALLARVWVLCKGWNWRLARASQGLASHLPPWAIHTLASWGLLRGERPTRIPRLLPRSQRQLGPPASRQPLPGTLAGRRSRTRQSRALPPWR
Here is the method: as §1

The next experiment addresses T5, MAP3K1 (Homo sapiens, UniProt Q13233).
T5 construct: purchased Reaction Biology Europe GmbH (formerly ProQinase)
How it is done: as §1

The next experiment concerns the target T6, VEGFR1 (Homo sapiens, UniProt P17948).
T6 construct: purchased Reaction Biology Europe GmbH (formerly ProQinase)
How it is done: as §1

The target in another experiment is T7, CK1γ1 (Homo sapiens, UniProt Q9HCP0).
T7 construct: purchased Reaction Biology Europe GmbH (formerly ProQinase)
T7 sequence (Q9HCP0 whole entry): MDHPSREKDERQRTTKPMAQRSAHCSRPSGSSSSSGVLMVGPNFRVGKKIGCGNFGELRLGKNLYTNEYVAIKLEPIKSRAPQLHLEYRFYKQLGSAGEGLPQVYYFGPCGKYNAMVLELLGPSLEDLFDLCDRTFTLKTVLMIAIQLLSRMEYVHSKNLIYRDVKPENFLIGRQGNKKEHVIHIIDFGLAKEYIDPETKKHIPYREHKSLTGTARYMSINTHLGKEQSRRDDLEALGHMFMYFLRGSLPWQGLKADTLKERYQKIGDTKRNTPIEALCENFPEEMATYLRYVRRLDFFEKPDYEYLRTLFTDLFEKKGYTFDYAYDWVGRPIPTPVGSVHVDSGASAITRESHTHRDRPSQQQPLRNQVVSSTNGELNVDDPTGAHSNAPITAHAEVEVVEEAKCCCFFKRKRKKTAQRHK
How it is done:
as §1

Another experiment concerns the target T8, MARK1 (Homo sapiens, UniProt Q9P0L2).
T8 construct: purchased Reaction Biology Europe GmbH (formerly ProQinase)
How it is done:
as §1

The target of the next experiment is T9, ACVR1B (Homo sapiens, UniProt P36896).
T9 construct: purchased Reaction Biology Europe GmbH (formerly ProQinase)
T9 sequence (P36896 24-505): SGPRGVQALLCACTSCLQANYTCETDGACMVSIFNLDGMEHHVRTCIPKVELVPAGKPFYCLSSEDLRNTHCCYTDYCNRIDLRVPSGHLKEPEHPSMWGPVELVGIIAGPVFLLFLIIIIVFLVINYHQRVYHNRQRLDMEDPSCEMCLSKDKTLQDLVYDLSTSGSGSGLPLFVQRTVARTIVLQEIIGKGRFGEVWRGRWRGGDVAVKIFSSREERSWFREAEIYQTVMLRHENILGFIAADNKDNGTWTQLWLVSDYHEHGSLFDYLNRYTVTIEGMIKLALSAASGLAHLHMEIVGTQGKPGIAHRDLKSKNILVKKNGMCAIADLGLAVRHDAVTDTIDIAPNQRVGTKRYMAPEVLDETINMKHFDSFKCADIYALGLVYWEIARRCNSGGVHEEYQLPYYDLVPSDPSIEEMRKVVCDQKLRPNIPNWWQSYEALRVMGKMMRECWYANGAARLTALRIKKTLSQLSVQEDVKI
Here is the method: as §1

A further experiment addresses T10, CDC7/DBF4 (Homo sapiens, UniProt O00311).
T10 construct: purchased Reaction Biology Europe GmbH (formerly ProQinase)
How it is done: as §1

In PMC11167047 (Cell Death Discovery, 2024) one finds residual kinase activity data, which are given here for two compounds.

T1 sequence (Q9P1W9 whole entry): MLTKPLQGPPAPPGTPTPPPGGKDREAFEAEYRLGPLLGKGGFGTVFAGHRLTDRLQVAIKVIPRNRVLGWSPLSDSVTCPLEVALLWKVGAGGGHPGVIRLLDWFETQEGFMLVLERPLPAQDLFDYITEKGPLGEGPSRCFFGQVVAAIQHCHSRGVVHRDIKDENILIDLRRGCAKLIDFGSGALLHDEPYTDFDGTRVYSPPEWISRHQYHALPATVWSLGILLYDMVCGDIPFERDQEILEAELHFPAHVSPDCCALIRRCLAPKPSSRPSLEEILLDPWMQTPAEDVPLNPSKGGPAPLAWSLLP
T8 sequence (Q9P0L2 whole entry): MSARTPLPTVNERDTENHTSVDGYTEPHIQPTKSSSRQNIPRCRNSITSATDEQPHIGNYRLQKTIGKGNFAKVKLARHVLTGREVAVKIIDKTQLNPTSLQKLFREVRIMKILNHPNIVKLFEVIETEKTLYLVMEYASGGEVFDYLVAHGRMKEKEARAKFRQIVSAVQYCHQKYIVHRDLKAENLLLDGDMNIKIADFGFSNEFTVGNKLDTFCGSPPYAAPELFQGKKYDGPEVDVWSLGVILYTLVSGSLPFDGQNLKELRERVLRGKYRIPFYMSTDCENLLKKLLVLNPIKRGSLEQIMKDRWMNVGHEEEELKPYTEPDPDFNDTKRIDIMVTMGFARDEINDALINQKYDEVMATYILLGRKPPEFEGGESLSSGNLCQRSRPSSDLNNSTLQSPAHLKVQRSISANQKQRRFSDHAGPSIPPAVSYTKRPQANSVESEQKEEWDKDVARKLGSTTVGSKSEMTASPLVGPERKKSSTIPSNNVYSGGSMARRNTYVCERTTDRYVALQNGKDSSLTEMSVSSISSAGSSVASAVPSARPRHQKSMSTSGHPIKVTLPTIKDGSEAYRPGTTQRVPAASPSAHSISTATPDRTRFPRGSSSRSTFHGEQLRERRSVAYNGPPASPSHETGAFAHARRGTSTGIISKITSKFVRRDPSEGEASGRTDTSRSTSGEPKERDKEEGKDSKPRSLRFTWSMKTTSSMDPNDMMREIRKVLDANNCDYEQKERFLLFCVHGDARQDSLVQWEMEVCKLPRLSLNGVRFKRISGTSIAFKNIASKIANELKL
T5 sequence (Q13233 whole entry): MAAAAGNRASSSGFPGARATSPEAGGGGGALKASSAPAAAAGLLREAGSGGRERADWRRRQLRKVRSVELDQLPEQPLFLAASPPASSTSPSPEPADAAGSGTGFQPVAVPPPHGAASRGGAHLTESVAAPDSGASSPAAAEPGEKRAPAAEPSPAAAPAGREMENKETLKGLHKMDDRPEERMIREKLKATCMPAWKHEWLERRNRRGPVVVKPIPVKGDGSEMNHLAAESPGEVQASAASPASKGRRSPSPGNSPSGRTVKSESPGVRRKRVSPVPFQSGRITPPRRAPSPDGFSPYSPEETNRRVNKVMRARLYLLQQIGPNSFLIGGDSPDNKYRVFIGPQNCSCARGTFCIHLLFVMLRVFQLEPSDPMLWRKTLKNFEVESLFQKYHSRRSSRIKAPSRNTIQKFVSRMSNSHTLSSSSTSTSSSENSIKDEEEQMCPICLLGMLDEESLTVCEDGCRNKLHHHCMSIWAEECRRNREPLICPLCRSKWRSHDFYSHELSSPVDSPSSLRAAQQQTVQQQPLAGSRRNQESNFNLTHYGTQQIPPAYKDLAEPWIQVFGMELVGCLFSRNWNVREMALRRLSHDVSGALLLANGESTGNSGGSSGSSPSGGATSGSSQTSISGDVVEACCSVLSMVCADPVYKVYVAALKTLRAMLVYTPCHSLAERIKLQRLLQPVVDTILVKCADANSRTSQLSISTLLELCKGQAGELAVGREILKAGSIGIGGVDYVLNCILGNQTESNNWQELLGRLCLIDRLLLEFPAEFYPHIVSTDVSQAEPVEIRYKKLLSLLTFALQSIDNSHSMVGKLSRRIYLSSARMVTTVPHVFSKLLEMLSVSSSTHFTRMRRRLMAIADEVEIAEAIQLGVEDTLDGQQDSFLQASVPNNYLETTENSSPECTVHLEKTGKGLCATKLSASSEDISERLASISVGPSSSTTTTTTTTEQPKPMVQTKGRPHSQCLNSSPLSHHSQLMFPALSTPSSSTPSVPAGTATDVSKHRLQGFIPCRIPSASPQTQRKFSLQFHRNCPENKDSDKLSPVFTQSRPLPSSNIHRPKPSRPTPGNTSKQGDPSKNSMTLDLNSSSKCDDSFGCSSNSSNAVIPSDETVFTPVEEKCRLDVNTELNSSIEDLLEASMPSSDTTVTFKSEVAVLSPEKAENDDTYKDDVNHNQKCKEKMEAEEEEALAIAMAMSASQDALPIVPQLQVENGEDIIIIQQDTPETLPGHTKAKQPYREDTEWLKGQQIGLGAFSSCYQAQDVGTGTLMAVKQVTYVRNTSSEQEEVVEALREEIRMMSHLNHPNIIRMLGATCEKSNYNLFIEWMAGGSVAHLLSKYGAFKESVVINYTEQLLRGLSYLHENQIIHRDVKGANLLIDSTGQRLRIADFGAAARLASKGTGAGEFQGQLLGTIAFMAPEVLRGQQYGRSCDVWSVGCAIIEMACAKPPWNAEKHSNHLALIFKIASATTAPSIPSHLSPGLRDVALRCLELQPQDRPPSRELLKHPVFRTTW

On to `c1ccc(CNc2cc(-c3c[nH]c4ncccc34)ccn2)cc1` [meriolin 36], for which the residual kinase activity was 119 % of control at PIM2 (0.3 µM); 90 % of control at PIM2 (3 µM); 73 % of control at LYN (0.3 µM); 25 % of control on LYN (3 µM); 73 % of control on MLK4 (0.3 µM); 40 % of control at MLK4 (3 µM). For the same compound, the residual kinase activity at TAOK2 (0.3 µM) is given as 60 % of control; on TAOK2 (3 µM), 19 % of control; on MAP3K1 (0.3 µM) it was 94 % of control; at MAP3K1 (3 µM), 93 % of control; at VEGFR1 (0.3 µM), 83 % of control; on VEGFR1 (3 µM), 43 % of control. Further, the residual kinase activity is 23 % of control on CK1γ1 (0.3 µM); 3 % of control on CK1γ1 (3 µM); 90 % of control on MARK1 (0.3 µM); 43 % of control at MARK1 (3 µM); 43 % of control at ACVR1B (0.3 µM); 10 % of control at ACVR1B (3 µM). Also, the residual kinase activity at CDC7/DBF4 (0.3 µM) is reported as 10 % of control; at CDC7/DBF4 (3 µM) it was 2 % of control.

`COc1ccnc2[nH]cc(-c3cc(N)nc(N)c3)c12` [meriolin 16]: the residual kinase activity is recorded as 115 % of control at PIM2 (0.03 µM); 83 % of control at PIM2 (0.3 µM); 105 % of control at LYN (0.03 µM); 81 % of control at LYN (0.3 µM); 105 % of control on MLK4 (0.03 µM); 75 % of control on MLK4 (0.3 µM). Further, the residual kinase activity on TAOK2 (0.03 µM) is given as 107 % of control; at TAOK2 (0.3 µM), 89 % of control; on MAP3K1 (0.03 µM), 105 % of control; at MAP3K1 (0.3 µM), 106 % of control; on VEGFR1 (0.03 µM), 110 % of control; at VEGFR1 (0.3 µM), 89 % of control. For the same compound, the residual kinase activity at CK1γ1 (0.03 µM) is given as 87 % of control; at CK1γ1 (0.3 µM), 38 % of control; at MARK1 (0.03 µM), 121 % of control; on MARK1 (0.3 µM), 101 % of control; on ACVR1B (0.03 µM) it was 75 % of control; on ACVR1B (0.3 µM), 69 % of control. Moreover, the residual kinase activity on CDC7/DBF4 (0.03 µM) is listed as 63 % of control; at CDC7/DBF4 (0.3 µM) it was 12 % of control.
